Like-named read-outs stand apart in the source and are kept apart here.
Assays:
human C3bBb = human C3bBb (Homo sapiens (Human), UniProt P00751); test: Human C3bBb enzyme assay (C3a generation from C3, ELISA); type: biochemical
Experimental: Compounds disclosed herein were evaluated for their potency to inhibit human C3bBb in a biochemical assay. To generate active C3bBb complex in vitro, purified human C3b (Complement Technology, A114), CFB (Complement Technology, A135) and CFD (Complement Technology, A136) were mixed in a 1:1:1 ratio to a final concentration of 1 μM each in the C3bBb assay buffer (PBS pH 7.4, 100 μM NiCl2, 0.05% (w/v) CHAPS). The reaction mix was incubated at room temperature for 30 minutes on a rotating platform. […] On the day of the enzyme assay, a reaction mixture containing 3 nM C3bBb complex and 1 μM purified human C3 (Complement Technology, A113) was prepared in the C3bBb assay buffer. Compounds were serial diluted 3-fold in 100% DMSO for a 10-point dose-response curve. A 0.5 μL aliquot of diluted compound solution was transferred to a conical bottom 96-well plate, before 49.5 μL of the reaction mix was added to each well to initiate the reaction. The plate was incubated for 1 hour at room temperature. […] The generation of C3a from C3 by the C3bBb complex was measured using the MicroVue C3a Plus EIA ELISA kit (Quidel, A031). The concentration of C3a from each well was calculated using a standard curve. Percent inhibition values were generated using the baseline (C3 only) and the maximum control (DMSO instead of compound), and IC50 of each compound was calculated using 4-parameter logistic regression.

[1] = test system: MAC formation in normal human serum; test: Human serum MAC formation assay (zymosan-coated plates, 50% normal human serum); details: 50% normal human serum with EGTA, 37° C. 30 minutes
Experimental: MAC deposition assay using normal human serum was applied to evaluate compound potency under physiologically relevant conditions. Black Maxisorp plates (Thermo Fisher, 437111) were coated with preactivated zymosan (Complement Technology, B400) at 0.5 mg/mL in carbonate buffer (pH 9.5, Sigma, C3041) at room temperature overnight. Compounds were serial diluted 3-fold in 100% DMSO for a 10-point dose-response curve. Normal human serum (Complement Technology, NHS) was diluted to 50% (v/v) with the gelatin buffer (4.2 mM HEPES pH 7.4, 0.15 mM CaCl2, 141 mM NaCl, 4.5 mM MgCl2, 0.1% gelatin) containing 20 mM EGTA or 20 mM EDTA. In conical bottom 96-well plates, 1 μL compound and 99 μL of serum-EGTA were mixed. Serum-EDTA was used as baseline control. The serum-compound mixture was incubated at room temperature for 15 minutes before being transferred to the washed zymosan plate for complement activation at 37° C. for 30 minutes. The reaction was terminated by decanting the reaction mixture and adding blocking buffer (Thermo Fisher, 37539) for 20 minutes. MAC formation on the ELISA plate was detected using 0.2 μg/mL mouse anti-human C9 neoepitope monoclonal antibody (Thermo Fisher, MA5-33373) diluted in phosphate-buffered saline with 0.05% Tween-20 (PBST). A goat anti-mouse IgG-HRP antibody (Thermo Fisher, A16072) was used at 1:2000 in PBST as secondary antibody. After washing, the reaction was developed using QuantaBlu (Thermo Fisher, 15169) for 20 minutes at room temperature. The plates were read at 325 nm excitation and 420 nm emission wavelengths. Percent inhibition values were generated using the baseline (EDTA-serum) and the maximum control (EGTA-serum). An IC50 for each compound was calculated using 4-parameter logistic regression.

[2] = starred values: assay conducted with 1 nM C3b:Bb enzyme, read-out: Human C3b:Bb IC50 Avg
[3] = 3 nM C3bBb complex, 1 μM human C3, 1 hour room temperature, read-out: Human C3b:Bb IC50 Avg

human C3bBb, sequence (P00751 260-764): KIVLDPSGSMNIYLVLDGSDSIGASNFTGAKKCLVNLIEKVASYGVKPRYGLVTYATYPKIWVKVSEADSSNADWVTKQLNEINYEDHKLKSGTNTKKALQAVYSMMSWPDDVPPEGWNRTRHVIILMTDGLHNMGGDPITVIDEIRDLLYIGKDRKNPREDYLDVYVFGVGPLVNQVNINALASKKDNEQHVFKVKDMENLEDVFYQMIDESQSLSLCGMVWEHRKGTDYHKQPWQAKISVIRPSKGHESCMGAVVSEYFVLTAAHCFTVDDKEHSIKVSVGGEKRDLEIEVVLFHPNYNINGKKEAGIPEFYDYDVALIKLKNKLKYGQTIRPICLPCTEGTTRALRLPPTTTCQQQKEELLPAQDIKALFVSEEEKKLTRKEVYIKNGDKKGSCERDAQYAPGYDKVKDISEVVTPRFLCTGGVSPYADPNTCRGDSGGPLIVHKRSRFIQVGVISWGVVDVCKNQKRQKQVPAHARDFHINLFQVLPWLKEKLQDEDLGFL
human C3bBb, sequence (P01024 23-667 partner): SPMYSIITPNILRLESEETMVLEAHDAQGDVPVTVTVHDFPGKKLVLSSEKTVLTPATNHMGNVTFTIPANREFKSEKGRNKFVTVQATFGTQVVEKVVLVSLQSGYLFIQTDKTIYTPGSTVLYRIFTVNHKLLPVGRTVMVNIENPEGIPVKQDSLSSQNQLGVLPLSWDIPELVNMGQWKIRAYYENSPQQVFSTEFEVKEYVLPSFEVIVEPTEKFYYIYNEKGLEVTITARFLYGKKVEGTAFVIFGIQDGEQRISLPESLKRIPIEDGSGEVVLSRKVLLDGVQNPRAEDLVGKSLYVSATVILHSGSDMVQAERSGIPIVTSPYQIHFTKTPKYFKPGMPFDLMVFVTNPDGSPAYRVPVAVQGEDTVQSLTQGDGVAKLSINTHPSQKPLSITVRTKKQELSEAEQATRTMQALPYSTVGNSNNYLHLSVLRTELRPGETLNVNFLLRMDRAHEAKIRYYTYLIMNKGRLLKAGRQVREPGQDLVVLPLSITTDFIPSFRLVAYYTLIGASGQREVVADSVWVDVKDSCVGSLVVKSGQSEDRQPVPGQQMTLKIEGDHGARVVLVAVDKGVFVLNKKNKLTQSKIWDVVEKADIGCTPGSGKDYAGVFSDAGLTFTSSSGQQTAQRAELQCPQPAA
human C3bBb, sequence (P01024 749-1663 partner): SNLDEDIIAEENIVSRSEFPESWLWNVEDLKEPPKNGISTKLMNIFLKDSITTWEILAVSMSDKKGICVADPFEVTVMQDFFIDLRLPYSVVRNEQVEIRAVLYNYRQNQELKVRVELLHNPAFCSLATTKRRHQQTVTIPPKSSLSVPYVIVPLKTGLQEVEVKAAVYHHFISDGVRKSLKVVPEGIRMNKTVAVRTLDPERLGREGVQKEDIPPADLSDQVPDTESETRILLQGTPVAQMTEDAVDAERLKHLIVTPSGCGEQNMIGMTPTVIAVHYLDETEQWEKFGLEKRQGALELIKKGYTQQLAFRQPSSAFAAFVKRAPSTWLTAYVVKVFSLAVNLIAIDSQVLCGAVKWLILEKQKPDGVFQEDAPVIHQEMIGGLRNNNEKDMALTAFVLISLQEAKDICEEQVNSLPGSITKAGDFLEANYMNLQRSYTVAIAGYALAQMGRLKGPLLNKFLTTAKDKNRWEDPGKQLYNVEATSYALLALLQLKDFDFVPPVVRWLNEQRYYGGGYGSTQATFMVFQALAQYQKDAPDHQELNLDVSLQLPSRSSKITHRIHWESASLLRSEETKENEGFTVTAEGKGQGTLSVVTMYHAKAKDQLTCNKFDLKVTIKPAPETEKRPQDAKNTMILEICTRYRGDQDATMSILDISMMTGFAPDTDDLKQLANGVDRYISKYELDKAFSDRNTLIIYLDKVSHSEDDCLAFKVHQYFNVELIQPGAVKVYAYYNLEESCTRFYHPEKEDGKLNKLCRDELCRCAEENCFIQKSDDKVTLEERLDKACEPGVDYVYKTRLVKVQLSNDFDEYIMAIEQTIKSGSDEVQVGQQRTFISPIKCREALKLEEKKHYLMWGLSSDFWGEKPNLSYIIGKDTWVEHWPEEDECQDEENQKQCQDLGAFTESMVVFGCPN

Row | Structure (SMILES) | IC50 (human C3bBb; [2]) | IC50 (human C3bBb; [3]) | IC50 [1] | IC50 (human C3bBb; Human C3b:Bb IC50 Avg (nM), 3 nM C3bBb complex, 1 μM human C3, 1 hour room temperature)
1 | COc1cc(C)c2[nH]ccc2c1CN1CC[C@H](C2CCC2)C[C@H]1c1ccc(C(=O)O)cc1 (mixture of isomers) [Example 43, 4-((2S,4S)-4-cyclobutyl-1-((5-methoxy-7-methyl-1H-indol-4-yl)methyl)piperidin-2-yl)benzoic acid and 4-((2S,4R)-4-cyclobutyl-1-((5-methoxy-7-methyl-1H-indol-4-yl)methyl)piperidin-2-yl)benzoic acid] | 50 to 100 nM |  | > 500 nM | 
2 | COc1cc(C)c2[nH]ccc2c1CN1CC[C@H](n2cnc(C(F)(F)F)n2)C[C@H]1c1ccc(C(=O)O)cc1 (racemic) [Example 5, (±)-trans-4-(1-((5-methoxy-7-methyl-1H-indol-4-yl)methyl)-4-(3-(trifluoromethyl)-1H-1,2,4-triazol-1-yl)piperidin-2-yl)benzoic acid] |  |  | > 500 nM | 
3 | COc1cc(C)c2[nH]ccc2c1CN1CC[C@H](n2cc3ccccc3n2)C[C@H]1c1ccc(C(=O)O)cc1 (racemic) [Example 6, (±)-trans-4-(4-(2H-indazol-2-yl)-1-((5-methoxy-7-methyl-1H-indol-4-yl)methyl)piperidin-2-yl)benzoic acid] |  |  | > 500 nM | 
4 | COc1cc(C)c2[nH]ccc2c1CN1CC[C@H](n2cc(C(F)F)cn2)C[C@H]1c1ccc(C(=O)O)cc1 (racemic) [Example 7, (±)-trans-4-(4-(4-(difluoromethyl)-1H-pyrazol-1-yl)-1-((5-methoxy-7-methyl-1H-indol-4-yl)methyl)piperidin-2-yl)benzoic acid] | < 10 nM |  | 100 to 200 nM | 
5 | COc1cc(C)c2[nH]ccc2c1CN1CC[C@H](n2cc(S(C)(=O)=O)cn2)C[C@H]1c1ccc(C(=O)O)cc1 (racemic) [Example 11, (±)-trans-4-(1-((5-methoxy-7-methyl-1H-indol-4-yl)methyl)-4-(4-methylsulfonyl)-1H-pyrazol-1-yl)piperidin-2-yl)benzoic acid] |  | > 100 nM | > 500 nM | 
6 | COc1cc(C)c2[nH]ccc2c1CN1CC[C@H](N2CCCC2=O)C[C@H]1c1ccc(C(=O)O)cc1 (racemic) [Example 12, (±)-trans-4-(1-((5-methoxy-7-methyl-1H-indol-4-yl)methyl)-4-(2-oxopyrrolidin-1-yl)piperidin-2-yl)benzoic acid] |  |  | 300 to 500 nM | > 100 nM
7 | COc1cc(C)c2[nH]ccc2c1CN1CC[C@H](NCC2(C(F)(F)F)CC2)C[C@H]1c1ccc(C(=O)O)cc1 [Example 27, 4-((2S,4S)-1-((5-methoxy-7-methyl-1H-indol-4-yl)methyl)-4-(((1-(trifluoromethyl)cyclopropyl)methyl)amino)piperidin-2-yl)benzoic acid] |  |  | 100 to 200 nM | 
8 | COc1cc(C)c2[nH]ccc2c1CN1CC[C@H](C2CC2)C[C@H]1c1ccc(C(=O)O)cc1 [Example 41, 4-((2S,4S)-4-cyclopropyl-1-((5-methoxy-7-methyl-1H-indol-4-yl)methyl)piperidin-2-yl)benzoic acid] |  |  | 100 to 200 nM | 

Now from value to molecule, other results behind:

Row | IC50 (human C3bBb; [2]) | IC50 (human C3bBb; [3]) | Structure (SMILES) | IC50 [1] | IC50 (human C3bBb; Human C3b:Bb IC50 Avg (nM), 3 nM C3bBb complex, 1 μM human C3, 1 hour room temperature)
9 |  | 50 to 100 nM | COc1cc(C)c2[nH]ccc2c1CN1CC[C@H](n2cc(Br)cn2)C[C@H]1c1ccc(C(=O)O)cc1 (racemic) [Example 2, (±)-trans-4-(4-(4-bromo-1H-pyrazol-1-yl)-1-((5-methoxy-7-methyl-1H-indol-4-yl)methyl)piperidin-2-yl)benzoic acid] | 300 to 500 nM | 
10 |  | 10 to 25 nM | COc1cc(C)c2[nH]ccc2c1CN1CC[C@H](n2cncn2)C[C@H]1c1ccc(C(=O)O)cc1 (racemic) [Example 3, (±)-trans-4-(1-((5-methoxy-7-methyl-1H-indol-4-yl)methyl)-4-(1H-1,2,4-triazol-1-yl)piperidin-2-yl)benzoic acid] | > 500 nM | 
11 |  | > 100 nM | COc1cc(C)c2[nH]ccc2c1CN1CC[C@H](n2cccn2)C[C@H]1c1ccc(C(=O)O)cc1 (racemic) [Example 9, (±)-trans-4-(1-((5-methoxy-7-methyl-1H-indol-4-yl)methyl)-4-(1H-pyrazol-1-yl)piperidin-2-yl)benzoic acid] | > 500 nM | 

From patent publication US20250289804A1, “SUBSTITUTED INDOLE COMPOUNDS AND METHODS OF USE THEREOF” (NOVARTIS PHARMA AG, priority 2021, published 2025)
